Experimental findings from patent publication US20230165867A1 (CHENGDU BAIYU PHARMACEUTICAL CO., LTD., priority 2020, published 2023) are described below.

Molecules are shown by their SMILES. Read-outs that look alike come from different tables or passages of the source.

One data set concerns the target T1, DNA-PK kinase (Homo sapiens, UniProt P78527).
T1 construct: purchased Promega V4107
Nature of the data set: Inhibition assay of DNA-PK kinase (Promega kit, ADP-Glo chemiluminescence). The note with it: 50 µM ATP, 37° C., 60 min; read-out: IC50 (nM), inhibitory activity on DNA-PK kinase. The format is biochemical. How it is done:
The inhibitory activity of the compounds on DNA-PK kinase was measured by using a DNA-PK kinase assay kit (purchased from Promega, Cat.#: V4107, Lot: 0000366495). The results were quantified by chemiluminescence, and the detailed experimental protocol was as follows: • i. An ADP-fluorescence standard curve over a range of concentrations was plotted according to the kit instructions; • ii. […] The mixtures were mixed well, centrifuged (1000 rpm, 30 s), and incubated at 37° C. for 60 min; • iv. 5 µL of ADP-Glo™ Reagent was added to stop the reaction, which was then mixed well, centrifuged (1000 rpm, 30 s), and incubated at room temperature for 40 min; • v. 10 µL Kinase Detection Reagent was added, and the mixture was mixed well by shaking, centrifuged (1000 rpm, 30 s), and incubated at room temperature for 30 min; • vi. The […] was measured by using a microplate reader (Thermo fisher, Varioskan LUX).
On the technique in general: ADP-Glo turns the ADP formed in a reaction into a luminescent signal.

Data set [1] is described as follows: Pharmacokinetic assay in ICR mice (i.v. and p.o.). The note with it: mouse, plasma, male ICR mice; for half-life: read-out: T½ (converted); for bioavailability: po 10 mg/kg vs iv 1 mg/kg. It counts as in vivo. How it is done:
ICR mice were purchased from Beijing Vital River Laboratory Animal Technology Co., Ltd.
3.2 Experimental procedure • (1) Healthy male ICR mice (18-22 g) were prepared, with 18 mice for each compound. The mice were divided into 2 groups (an i.v. group and a p.o. group), with 9 mice per group. 3 mice were picked for blood collection at each time point. • (2) After the animals were fasted overnight (with free access to water), the compound of the present invention dissolved (or suspended) in a solvent of 5% DMSO and 95% 30% HP-β-CD (v:v) was administered via the tail vein (i.v., 1 mg/kg) or intragastrically (p.o., 10 mg/kg), respectively. • (3) For the i.v. group, 0.1 mL blood was collected from the submandibular vein 5 min, 15 min, 0.5 h, 1 h, 2 h, 4 h, 8 h, 12 h, and 24 h after administration, respectively, anticoagulated with EDTA-K2, and centrifuged at 4° C. for 5 min to obtain plasma, which was stored at -20° C. until testing. (4) For the p.o. group, 0.1 mL blood was collected from the submandibular vein before administration and 15 min, 0.5 h, 1 h, 2 h, 4 h, 6 h, 8 h, 12 h, and 24 h after administration, and treated in the same manner as that for the intravenous group. • (5) The concentration of the compound of the present invention in plasma was measured by LC/MS/MS. • (6) Calculation and fitting were performed with Analyst 1.6 from AB Company, and the results are shown in Table 3.

The term IC50 denotes the concentration at which inhibition is half-maximal. One may read the AUC as the area under the concentration-time curve, a measure of exposure. High values mean more exposure, low ones less exposure. What is called Cmax is the highest concentration seen after dosing.

As to `Cc1cc(C(N)=O)c(F)cc1Nc1ncc2c(n1)n(C1CCC3(CC1)COC3)c(=O)n2C` [Compound 86, 2-Fluoro-5-methyl-4-((7-methyl-8-oxo-9-(2-oxaspiro[3.5]nonan-7-yl)-8,9-dihydro-7H-purin-2-yl)amino)benzamide], the IC50 at DNA-PK kinase came to 0.44 nM.

Consider `Cc1cc(C(N)=O)c(F)cc1Nc1ncc2c(n1)n(C1CC3(COC3)C1)c(=O)n2C` [Compound 89, 2-Fluoro-5-methyl-4-((7-methyl-8-oxo-9-(2-oxaspiro[3.3]heptan-6-yl)-8,9-dihydro-7H-purin-2-yl)amino)benzamide], for which the IC50 on DNA-PK kinase was found to be 3.83 nM.

Regarding `Cc1cc(C(N)=O)c(F)cc1Nc1ncc2c(n1)n(C1CCC(CO)OC1)c(=O)n2C` (centres unmarked) [Compound 96, 2-Fluoro-4-((9-(6-(hydroxymethyl)tetrahydro-2H-pyran-3-yl)-7-methyl-8-oxo-8,9-dihydro-7H-purin-2-yl)amino)-5-methylbenzamide], at DNA-PK kinase, the IC50 was determined as 3.89 nM.

On to `Cc1cc(C(N)=O)c(F)cc1Nc1ncc2c(n1)n(C1CCOCC1)c(=O)n2CCF` [Compound 109, 2-Fluoro-4-((7-(2-fluoroethyl)-8-oxo-9-(tetrahydro-2H-pyran-4-yl)-8,9-dihydro-7H-purin-2-yl)amino)-5-methylbenzamide], for which, at DNA-PK kinase, the IC50 turned out to be 5.54 nM.

Turning to `Cc1cc(C#N)ccc1Nc1ncc2c(n1)n(C1CC3CC(O)CC3C1)c(=O)n2C` (centres unmarked) [Compound 98, 4-[(9-(5-hydroxy-octahydropentalen-2-yl)-7-methyl-8-oxo-8,9-dihydro-7H-purin-2-yl)amino]-3-methylbenzonitrile], on DNA-PK kinase, the IC50 turned out to be 4.01 nM.

`Cc1cc(Cl)ccc1Nc1ncc2c(n1)n(C1CCOCC1)c(=O)n2C` [Compound 4, 2-((4-chloro-2-methylphenyl)amino)-7-methyl-9-(tetrahydro-2H-pyran-4-yl)-7,9-dihydro-8H-purin-8-one]: at DNA-PK kinase, the IC50 was found to be 8.3 nM.

For `[2H]C([2H])([2H])C([2H])([2H])n1c(=O)n(C2CCOCC2)c2nc(Nc3cc(F)c(C(N)=O)cc3C)ncc21` [Compound 105, 4-((7-(ethyl-d5)-8-oxo-9-(tetrahydro-2H-pyran-4-yl)-8,9-dihydro-7H-purin-2-yl)amino)-2-fluoro-5-methylbenzamide], the IC50 on DNA-PK kinase came out at 5.54 nM.

As to `Cc1cc(F)ccc1Nc1ncc2c(n1)n(C1CCOCC1)c(=O)n2C` [Compound 7, 2-((4-fluoro-2-methylphenyl)amino)-7-methyl-9-(tetrahydro-2H-pyran-4-yl)-7,9-dihydro-8H-purin-8-one], the IC50 at DNA-PK kinase was 5.47 nM.

As for `COC(=O)c1cc(Nc2ncc3c(n2)n(C2CCOCC2)c(=O)n3C)c(C)s1` [Compound 22], the IC50 on DNA-PK kinase was determined as 1.36 nM.

`Cc1[nH]c(=O)ccc1Nc1ncc2c(n1)n(C1CCOCC1)c(=O)n2C` [Compound 40]: the IC50 at DNA-PK kinase was 39.2 nM.

For the compound `Cc1cc(C(N)=O)c(F)cc1Nc1ncc2c(n1)n(C1CCOCC1)c(=O)n2C1CC1` [Compound 64, 4-((7-cyclopropyl-8-oxo-9-(tetrahydro-2H-pyran-4-yl)-8,9-dihydro-7H-purin-2-yl)amino)-2-fluoro-5-methylbenzamide], on DNA-PK kinase, the IC50 is 3.34 nM.

Regarding `COC(=O)c1cc(C)c(Nc2ncc3c(n2)n(C2CCOCC2)c(=O)n3C)cc1F` [Compound 51], the IC50 on DNA-PK kinase amounted to 34.1 nM.

As for `Cc1cc(C(=O)NC2CC2)ccc1Nc1ncc2c(n1)n(C1CCOCC1)c(=O)n2C` [Compound 31, N-Cyclopropyl-3-methyl-4-((7-methyl-8-oxo-9-(tetrahydro-2H-pyran-4-yl)-8,9-dihydro-7H-purin-2-yl)amino)benzamide], the IC50 at DNA-PK kinase came out at 31 nM.

On to `COc1ccc(Nc2ncc3c(n2)n(C2CCOCC2)c(=O)n3C)c(C)n1` [Compound 21], for which the IC50 on DNA-PK kinase was found to be 53 nM.

Regarding `Cc1cc(C(N)=O)c(F)cc1Nc1ncc2c(n1)n(C1C[C@@H]3COC[C@H]3C1)c(=O)n2C` [Compound 99, 2-fluoro-4-((9-((3aS,6aS)-hexahydro-1H-cyclopenta[c]furan-5-yl)-7-methyl-8-oxo-8,9-dihydro-7H-purin-2-yl)amino)-5-methylbenzamide], the IC50 at DNA-PK kinase turned out to be 2.13 nM.

In the case of `Cc1cc(C(=O)O)c(C#N)cc1Nc1ncc2c(n1)n(C1CCOCC1)c(=O)n2C` [Compound 46, 2-cyano-5-methyl-4-((7-methyl-8-oxo-9-(tetrahydro-2H-pyran-4-yl)-8,9-dihydro-7H-purin-2-yl)amino)benzoic acid], the IC50 on DNA-PK kinase is 0.99 nM.

Regarding `Cn1c(=O)n(C2CCOCC2)c2nc(Nc3cc(F)c(C(N)=O)cc3Cl)ncc21` [Compound 59, 5-Chloro-2-fluoro-4-((7-methyl-8-oxo-9-(tetrahydro-2H-pyran-4-yl)-8,9-dihydro-7H-purin-2-yl)amino)benzamide], the IC50 on DNA-PK kinase is 12.1 nM.

For the compound `Cc1cc(C(N)=O)c(C#N)cc1Nc1ncc2c(n1)n(C1CCOCC1)c(=O)n2C` [Compound 47, 2-cyano-5-methyl-4-((7-methyl-8-oxo-9-(tetrahydro-2H-pyran-4-yl)-8,9-dihydro-7H-purin-2-yl)amino)benzamide], the IC50 on DNA-PK kinase was found to be 3.69 nM.

Take `Cc1cc(C(N)=O)c(F)cc1Nc1ncc2c(n1)n(C1CCC(C)(C#N)CC1)c(=O)n2C` (centres unmarked) [Compound 92, 4-((9-(4-cyano-4-methylcyclohexyl)-7-methyl-8-oxo-8,9-dihydro-7H-purin-2-yl)amino)-2-fluoro-5-methylbenzamide]: the IC50 at DNA-PK kinase turned out to be 0.02 nM.

With `Cc1sc(C#N)cc1Nc1ncc2c(n1)n(C1CCOCC1)c(=O)n2C` [Compound 43, 5-Methyl-4-((7-methyl-8-oxo-9-(tetrahydro-2H-pyran-4-yl)-8,9-dihydro-7H-purin-2-yl)amino)thiophene-2-carbonitrile], on DNA-PK kinase, the IC50 was 9.8 nM.

`[2H]C([2H])([2H])n1c(=O)n(C2CCOCC2)c2nc(Nc3ccc(C#N)cc3C)ncc21` (single isomer, unassigned) [Compound 6, 3-Methyl-4-((7-(methyl-d3)-8-oxo-9-(tetrahydro-2H-pyran-4-yl)-8,9-dihydro-7H-purin-2-yl)amino)benzonitrile]: in data set [1] (iv, 1 mg/kg), the exposure (AUC) was determined as 82.4 ng·h/mL and the half-life was 17.9 min. Moreover, in data set [1], the bioavailability is 179%. Besides, in data set [1] (po, 10 mg/kg), the AUC is 1480 ng·h/mL, the Cmax came out at 1220 ng/mL and the half-life was 57.8 min.

In the case of `Cc1cc(C(N)=O)c(F)c(C)c1Nc1ncc2c(n1)n(C1CCOCC1)c(=O)n2C` [Compound 60, 2-Fluoro-3,5-dimethyl-4-((7-methyl-8-oxo-9-(tetrahydro-2H-pyran-4-yl)-8,9-dihydro-7H-purin-2-yl)amino)benzamide], on DNA-PK kinase, the IC50 turned out to be 29.7 nM.

`Cc1cc(=O)[nH]cc1Nc1ncc2c(n1)n(C1CCOCC1)c(=O)n2C` [Compound 55, 7-Methyl-2-((4-methyl-6-oxo-1,6-dihydropyridin-3-yl)amino)-9-(tetrahydro-2H-pyran-4-yl)-7,9-dihydro-8H-purin-8-one]: on DNA-PK kinase, the IC50 was found to be 14.8 nM.

Consider `Cc1cc(C(N)=O)c(F)cc1Nc1ncc2c(n1)n([C@H]1C[C@@H](O)C1)c(=O)n2C` [Compound 94, 2-Fluoro-4-((9-(cis-3-hydroxycyclobutyl)-7-methyl-8-oxo-8,9-dihydro-7H-purin-2-yl)amino)-5-methylbenzamide], for which the IC50 on DNA-PK kinase stood at 7.2 nM.

Turning to `Cc1cc(C(N)=O)c(F)cc1Nc1ncc2c(n1)n(C1CCOCC1)c(=O)n2CC(F)F` [Compound 106, 4-((7-(2,2-difluoroethyl)-8-oxo-9-(tetrahydro-2H-pyran-4-yl)-8,9-dihydro-7H-purin-2-yl)amino)-2-fluoro-5-methylbenzamide], the concentration for half-maximal inhibition (IC50) on DNA-PK kinase stood at 6.75 nM.

For the compound `Cc1cc(C(=O)NC(C)C)ccc1Nc1ncc2c(n1)n(C1CCOCC1)c(=O)n2C` [Compound 30, N-Isopropyl-3-methyl-4-((7-methyl-8-oxo-9-(tetrahydro-2H-pyran-4-yl)-8,9-dihydro-7H-purin-2-yl)amino)benzamide], the IC50 at DNA-PK kinase is 66.6 nM.

Regarding `Cc1ccc(C#N)cc1Nc1ncc2c(n1)n(C1CCOCC1)c(=O)n2C` [Compound 15, 4-Methyl-3-((7-methyl-8-oxo-9-(tetrahydro-2H-pyran-4-yl)-8,9-dihydro-7H-purin-2-yl)amino)benzonitrile], at DNA-PK kinase, the IC50 turned out to be 5.28 nM.

Turning to `Cc1sc(C(=O)O)cc1Nc1ncc2c(n1)n(C1CCOCC1)c(=O)n2C` [Compound 41], in data set [1] (iv, 1 mg/kg), the AUC amounted to 357 ng·h/mL and the half-life was 33 min. In addition, in data set [1], the bioavailability is 42.3%. Besides, in data set [1] (po, 10 mg/kg), the AUC was found to be 1500 ng·h/mL, the Cmax was determined as 2710 ng/mL and the half-life is 293 min.
